Source: patent US20220041623A1, “INDOLE MACROCYCLIC DERIVATIVE, PREPARATION METHOD THEREOF AND APPLICATION THEREOF IN MEDICINE” (JIANGSU HENGRUI MEDICINE CO., LTD., priority 2018, published 2022)

Columns and labels:
AMO-1 cells = test: Cell proliferation experiment (intracellular ATP, CellTiter-Glo), AMO-1; assay type: cell-based; details: Homo sapiens, AMO1, 72 h; AMO-1 cells, incubated 3 days, CellTiter-Glo; read-out: AMO-1 IC50
Method: (§1) The following method evaluates the inhibition effect of the compound of the present invention on the proliferation of AMO-1 and MV-4-11 cells according to IC50 value by detecting intracellular ATP content. The experimental method is briefly described as follows.
1. AMO-1, human bone marrow plasmacytoma (Nanjing Cobioer Biosciences Co., Ltd., CBP60242)
(§2) AMO-1 cells were cultured in RPMI1640 medium (containing 20% FBS), and MV-4-11 cells were cultured in IMDM medium (containing 10% FBS). The cells were passaged for 2 to 3 times a week, with a passage ratio of 1:4 or 1:6. During the passage, the cells were transferred to a centrifuge tube and centrifuged at 1200 rpm for 3 minutes. The supernatant was discarded, and fresh medium was added to resuspend the cells. […] 100 μL of complete medium was added to the periphery of the 96-well plate. The plate was incubated in an incubator for 24 hours (37° C., 5% CO2).
(§3) The test sample was diluted to 20 mM with DMSO, and then diluted to 9 concentrations by diluting in 4-fold gradient. Blank and control wells were set. 5 μL of the test compound solution formulated as gradient concentration was added to 95 μL of fresh medium. 10 µL of the above drug-containing medium solution was added to the plate. The plate was incubated in an incubator for 3 days (37° C., 5% CO2). In the 96-well cell culture plate, 50 μL of CellTiter-Glo reagent was added to each well, and the plate was left to stand in the dark at room temperature for 5 to 10 minutes. The chemiluminescence signal value was read in PHERAstar, and the data was processed by GraphPad software.

MCL-1 protein = molecular target: T1, MCL-1 protein (Homo sapiens, UniProt Q07820); test: MCL-1 protein binding experiment (HTRF, MCL-1/Bim); details: for inhibition at up to 10 µM: HTRF MCL-1/Bim binding, initial concentration 10 μM, read-out: Maximum inhibition rate (%); for Ki: HTRF, 0.1 nM His-MCL-1, 2.5 nM bio-Bim, room temperature
T1 construct: Bim peptide bought from R&D, 3526/1 NA
Method: The following method was used to determine the binding ability of the compound of the present invention to MCL-1 protein. The experimental method is briefly described as follows.
MCL-1 inhibitors can bind to MCL-1 protein to prevent the binding of MCL-1 to Bim protein. The experiment evaluates the binding ability of MCL-1 inhibitor to MCL-1 protein by detecting the binding of MCL-1 to Bim protein through HTRF method, and the activity of the compound was evaluated according to the Ki value.
The mixture was incubated at room temperature for 2 hours, followed by the detection of fluorescence signals at 620 nm and 665 nm by PHERAstar. The data was processed by GraphPad software.

MV-4-11 cells = test: Cell proliferation experiment (intracellular ATP, CellTiter-Glo), MV-4-11; assay type: cell-based; details: Homo sapiens, MV4-11, 72 h; MV-4-11 cells, incubated 3 days, CellTiter-Glo; read-out: MV-4-11 IC50
Method: as §1, §2, §3

T1 sequence (Q07820 171-327): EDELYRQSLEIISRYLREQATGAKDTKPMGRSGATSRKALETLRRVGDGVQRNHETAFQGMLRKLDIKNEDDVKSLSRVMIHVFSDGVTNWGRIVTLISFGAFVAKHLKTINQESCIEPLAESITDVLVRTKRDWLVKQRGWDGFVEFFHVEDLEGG

SMILES	inhibition at up to 10 µM (MCL-1 protein) [%]	Ki (MCL-1 protein) [nM]	IC50 (MV-4-11 cells) [nM]	IC50 (AMO-1 cells) [nM]
Cc1c(C(=O)O)n2c3ccc(Cl)c(c13)-c1c(nn(C)c1C)CN(C)Cc1cc(n(C)n1)CSc1cc(c3ccccc3c1)OCCC2 [Example 3, 17-Chloro-5,9,13,14,22-pentamethyl-28-oxa-2-thia-5,6,9,12,13,24-hexaazaheptacyclo[27.7.1.1^4,7.0^11,15.0^16,21.0^20,24.0^30,35]octatriaconta-1(37),4(38),6,11,14,16,18,20,22,29,31,33,35-tridecaene-23-carboxylic acid]	100	0.6		
Cc1c2c(nn1C)CSCc1cc(n(C)n1)CSc1cc(c3ccccc3c1)OCCCn1c(C(=O)O)cc3c-2c(Cl)ccc31 [Example 1, 17-Chloro-5,13-14-trimethyl-28-oxa-2,9-dithia-5,6,12,13,24-pentaazaheptacyclo[27.7.1.1^4,7.0^11,15.0^16,21.0^20,24.0^30,35]octatriaconta-1(37),4(38),6,11,14,16,18,20,22,29,31,33,35-tridecaene-23-carboxylic acid]	100	2.39		
Cc1c(C(=O)O)n2c3ccc(Cl)c(c13)-c1c(nn(C)c1C)CSCc1cc(n(C)n1)CCc1cc(c3ccccc3c1)OCCC2 [Example 4, 17-Chloro-5,13,14,22-tetramethyl-28-oxa-9-thia-5,6,12,13,24-pentaazaheptacyclo[27.7.1.1^4,7.0^11,15.0^16,21.0^20,24.0^30,35]octatriaconta-1(37),4(38),6,11,14,16,18,20,22,29,31,33,35-tridecaene-23-carboxylic acid]	99	1.35		

Stronger by Ki (MCL-1 protein), values ahead:

inhibition at up to 10 µM (MCL-1 protein) [%]	Ki (MCL-1 protein) [nM]	IC50 (MV-4-11 cells) [nM]	SMILES	IC50 (AMO-1 cells) [nM]
100	0.46	136	Cc1c(C(=O)O)n2c3ccc(Cl)c(c13)-c1c(nn(C)c1C)CSCc1cc(n(C)n1)CCc1cc3c(c(c1)OCCC2)CCCC3 (single isomer, unassigned) [Example 8-1, (Ra)-17-Chloro-5,13,14,22-tetramethyl-28-oxa-9-thia-5,6,12,13,24-pentaazaheptacyclo[27.7.1.1^4,7.0^11,15.0^16,21.0^20,24.0^30,35]octatriaconta-1(37),4(38),6,11,14,16,18,20,22,29,35-undecaene-23-carboxylic acid]	100
100	0.22	63	Cc1c(C(=O)O)n2c3ccc(Cl)c(c13)-c1c(nn(C)c1C)CSCc1cc(n(C)n1)CSc1cc(cc3c1CCC3)OCCC2 [Example 12, 17-Chloro-5,13,14,22-tetramethyl-28-oxa-2,9-dithia-5,6,12,13,24-pentaazaheptacyclo[27.6.1.1^4,7.0^11,15.0^16,21.0^20,24.0^30,35]heptatriaconta-1(36),4(37),6,11,14,16,18,20,22,29,31(35)-undecaene-23-carboxylic acid]	63
100	0.11	42	Cc1c(C(=O)O)n2c3ccc(Cl)c(c13)-c1c(nn(C)c1C)CSCc1cc(n(C)n1)CSc1cc(c3ccccc3c1)OCCC2 (single isomer, unassigned) [Example 2-1, (Ra)-17-Chloro-5,13,14,22-tetramethyl-28-oxa-2,9-dithia-5,6,12,13,24-pentaazaheptacyclo[27.7.1.1^4,7.0^11,15.0^16,21.0^20,24.0^30,35]octatriaconta-1(37),4(38),6,11,14,16,18,20,22,29,31,33,35-tridecaene-23-carboxylic acid]	76
99	0.18		Cc1c(C(=O)O)n2c3ccc(Cl)c(c13)-c1c(nn(C)c1C)CSCc1cc(n(C)n1)CSc1cc(c3ccccc3c1)OCCC2 [Example 2, 17-Chloro-5,13,14,22-tetramethyl-28-oxa-2,9-dithia-5,6,12,13,24-pentaazaheptacyclo[27.7.1.1^4,7.0^11,15.0^16,21.0^20,24.0^30,35]octatriaconta-1(37),4(38),6,11,14,16,18,20,22,29,31,33,35-tridecaene-23-carboxylic acid]	
